Experimental data taken from the supplement of paper PMC9938120.

Assays:
Assay in all cases: drug sensitivity score (DSS3, normalised partial AUC of % inhibition dose-response) (DSS (score)); higher = more sensitive (stronger inhibition of viability); extreme values may be limits of the assay
[1] = tested on: FMOC02_2 (patient-derived low-grade serous ovarian cancer cells); conditions: 72 h; library: FO5A; assay format: 2D, 384-well, CellTiter-Glo
In short: (§1)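 The drug sensitivity score is calculated as a partial area under the percent-inhibition dose-response curve, divided by the log of the upper asymptote; higher scores mean more sensitive. For this score, early-passage (under 10) patient-derived ovarian cancer cells were exposed on 384-well flat clear-bottom plates to compounds at five concentrations across a 10,000-fold range for 72 h at 37 °C, 5% CO2. Viability was read with CellTiter-Glo and processed in Breeze.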

[2] = tested on: FMOC02_3 (patient-derived low-grade serous ovarian cancer cells); conditions: 72 h; library: FO5A; assay format: 2D, 384-well, CellTiter-Glo
In short: as §1

[3] = tested on: FMOC03 (patient-derived mucinous ovarian cancer cells); conditions: 72 h; library: FO5A; assay format: 2D, 384-well, CellTiter-Glo
In short: as §1

[4] = tested on: FMOC06 (patient-derived mucinous ovarian cancer cells); conditions: 72 h; library: FO5A; assay format: 2D, 384-well, CellTiter-Glo
In short: as §1

[5] = tested on: FMOC09 (patient-derived high-grade serous ovarian cancer cells); conditions: 72 h; library: FO5A; assay format: 2D, 384-well, CellTiter-Glo
In short: as §1

[6] = tested on: FMOC14 (patient-derived high-grade serous ovarian cancer cells); conditions: 72 h; library: FO5A; assay format: 2D, 384-well, CellTiter-Glo
In short: as §1

[7] = tested on: FMOC22 (patient-derived mucinous ovarian cancer cells); conditions: 72 h; library: FO5A; assay format: 2D, 384-well, CellTiter-Glo
In short: as §1

[8] = tested on: FMOC24 (patient-derived high-grade serous ovarian cancer cells); conditions: 72 h; library: FO5A; assay format: 2D, 384-well, CellTiter-Glo
In short: as §1

[9] = tested on: FMOC25_1 (patient-derived low-grade serous ovarian cancer cells); conditions: 72 h; library: FO4B; assay format: 2D, 384-well, CellTiter-Glo
In short: as §1

[10] = tested on: FMOC25_2 (patient-derived low-grade serous ovarian cancer cells); conditions: 72 h; library: FO5A; assay format: 2D, 384-well, CellTiter-Glo
In short: as §1

## Cc1ncc(-c2ccnc(Nc3ccc(S(C)(=O)=O)cc3)n2)n1C(C)C [AZD-5438]
[1]
  drug sensitivity score: 12.4
[2]
  drug sensitivity score: 15.2
[3]
  drug sensitivity score: 7.5
[4]
  drug sensitivity score: 8.2
[5]
  drug sensitivity score: 3.4
[6]
  drug sensitivity score: 9.7
[7]
  drug sensitivity score: 7
[8]
  drug sensitivity score: 13.6
[9]
  drug sensitivity score: 8.1
[10]
  drug sensitivity score: 12.8

## COc1cc(Nc2ncc(F)c(Nc3ccc4c(n3)NC(=O)C(C)(C)O4)n2)cc(OC)c1OC [Tamatinib]
[1]
  drug sensitivity score: 13
[2]
  drug sensitivity score: 9.6
[3]
  drug sensitivity score: 2.5
[4]
  drug sensitivity score: 0
[5]
  drug sensitivity score: 0.7
[6]
  drug sensitivity score: 0
[7]
  drug sensitivity score: 0
[8]
  drug sensitivity score: 5.3
[9]
  drug sensitivity score: 7.2
[10]
  drug sensitivity score: 8.7

## COc1ccc(-c2ccc3ncc4c(c3c2)n(-c2ccc(N3CCNCC3)c(C(F)(F)F)c2)c(=O)n4C)cn1 [NVP-BGT226]
[1]
  drug sensitivity score: 24.7
[2]
  drug sensitivity score: 27
[3]
  drug sensitivity score: 17.4
[4]
  drug sensitivity score: 15.2
[5]
  drug sensitivity score: 11.9
[6]
  drug sensitivity score: 14.9
[7]
  drug sensitivity score: 14.4
[8]
  drug sensitivity score: 10.7
[9]
  drug sensitivity score: 27.5
[10]
  drug sensitivity score: 26.7

## CC[C@@H]1C(=O)N(C)c2cnc(Nc3ccc(C(=O)N[C@H]4CC[C@H](N5CCN(CC6CC6)CC5)CC4)cc3OC)nc2N1C(C)C [Volasertib]
[1]
  drug sensitivity score: 6.1
[2]
  drug sensitivity score: 7.6
[3]
  drug sensitivity score: 3.5
[4]
  drug sensitivity score: 1.2
[5]
  drug sensitivity score: 5.1
[6]
  drug sensitivity score: 0.4
[7]
  drug sensitivity score: 3.9
[8]
  drug sensitivity score: 2.9
[9]
  drug sensitivity score: 3.2
[10]
  drug sensitivity score: 8.5

## CC(=O)OC[C@H]1O[C@@H]([S-])[C@H](OC(C)=O)[C@@H](OC(C)=O)[C@@H]1OC(C)=O.CCP(CC)CC.[Au+] [Auranofin]
[1]
  drug sensitivity score: 0
[2]
  drug sensitivity score: 1.8
[3]
  drug sensitivity score: 1.3
[4]
  drug sensitivity score: 4.1
[5]
  drug sensitivity score: 3.5
[6]
  drug sensitivity score: 5.2
[7]
  drug sensitivity score: 3.1
[8]
  drug sensitivity score: 1.1
[9]
  drug sensitivity score: 0
[10]
  drug sensitivity score: 3.8

## COc1ccccc1S(=O)(=O)Nc1ccc2c(c1)CN(C)C(=O)N2 [PFI-1]
[1]
  drug sensitivity score: 5.3
[2]
  drug sensitivity score: 7.1
[3]
  drug sensitivity score: 2.9
[4]
  drug sensitivity score: 3.6
[5]
  drug sensitivity score: 3.2
[6]
  drug sensitivity score: 1.2
[7]
  drug sensitivity score: 3.6
[8]
  drug sensitivity score: 3.2
[9]
  drug sensitivity score: 1.1
[10]
  drug sensitivity score: 5.7

## CCn1c(-c2nonc2N)nc2c(C#CC(C)(C)O)ncc(OC[C@H]3CCCNC3)c21
[1]
  drug sensitivity score: 10.3
[2]
  drug sensitivity score: 12.5
[3]
  drug sensitivity score: 2
[4]
  drug sensitivity score: 4.5
[5]
  drug sensitivity score: 2.4
[6]
  drug sensitivity score: 2.7
[7]
  drug sensitivity score: 1.2
[8]
  drug sensitivity score: 1.6
[9]
  drug sensitivity score: 4.5
[10]
  drug sensitivity score: 8.1

## CCS(=O)(=O)N1CCN(c2ccc(Nc3ncc(C(N)=O)c(NC4CC4)n3)cc2)CC1 [Cerdulatinib]
[1]
  drug sensitivity score: 0
[2]
  drug sensitivity score: 0
[3]
  drug sensitivity score: 0
[4]
  drug sensitivity score: 0
[5]
  drug sensitivity score: 0
[6]
  drug sensitivity score: 3.4
[7]
  drug sensitivity score: 0
[8]
  drug sensitivity score: 3.3
[9]
  drug sensitivity score: 4
[10]
  drug sensitivity score: 10.6

## Oc1nc(-c2ccc(C(F)(F)F)cc2)nc2c1CSCC2 [XAV-939]
[1]
  drug sensitivity score: 8.5
[2]
  drug sensitivity score: 6
[3]
  drug sensitivity score: 1.7
[4]
  drug sensitivity score: 0.5
[5]
  drug sensitivity score: 0
[6]
  drug sensitivity score: 2.1
[7]
  drug sensitivity score: 0
[8]
  drug sensitivity score: 3.55
[9]
  drug sensitivity score: 6.9
[10]
  drug sensitivity score: 9.9

## CC(C)c1cc(-c2n[nH]c(=O)n2-c2ccc3c(ccn3C)c2)c(O)cc1O [Ganetespib]
[1]
  drug sensitivity score: 16.2
[2]
  drug sensitivity score: 19.7
[3]
  drug sensitivity score: 11.3
[4]
  drug sensitivity score: 3.3
[5]
  drug sensitivity score: 12.3
[6]
  drug sensitivity score: 10.9
[7]
  drug sensitivity score: 14.3
[8]
  drug sensitivity score: 8.9
[9]
  drug sensitivity score: 11.6
[10]
  drug sensitivity score: 17.5

## CC(C)[C@@H](CS(=O)(=O)C(C)C)N1C(=O)[C@@](C)(CC(=O)O)C[C@H](c2cccc(Cl)c2)[C@H]1c1ccc(Cl)cc1 [AMG-232]
[1]
  drug sensitivity score: 14.9
[2]
  drug sensitivity score: 26
[3]
  drug sensitivity score: 0
[4]
  drug sensitivity score: 0
[5]
  drug sensitivity score: 0
[6]
  drug sensitivity score: 0
[7]
  drug sensitivity score: 0.8
[8]
  drug sensitivity score: 0
[9]
  drug sensitivity score: 5.6
[10]
  drug sensitivity score: 13.1

## O=C(NC1CCNCC1)c1n[nH]cc1NC(=O)c1c(Cl)cccc1Cl [AT7519]
[1]
  drug sensitivity score: 17.8
[2]
  drug sensitivity score: 22.1
[3]
  drug sensitivity score: 12.1
[4]
  drug sensitivity score: 16.3
[5]
  drug sensitivity score: 12.3
[6]
  drug sensitivity score: 12.5
[7]
  drug sensitivity score: 10
[8]
  drug sensitivity score: 15.2
[9]
  drug sensitivity score: 17.6
[10]
  drug sensitivity score: 21.3

## CCCCC(=O)OCC(=O)[C@]1(O)Cc2c(O)c3c(c(O)c2[C@@H](O[C@H]2C[C@H](NC(=O)C(F)(F)F)[C@H](O)[C@H](C)O2)C1)C(=O)c1c(OC)cccc1C3=O [Valrubicin]
[1]
  drug sensitivity score: 6.8
[2]
  drug sensitivity score: 9.2
[3]
  drug sensitivity score: 5.3
[4]
  drug sensitivity score: 6.5
[5]
  drug sensitivity score: 7.1
[6]
  drug sensitivity score: 5.1
[7]
  drug sensitivity score: 7.8
[8]
  drug sensitivity score: 7
[9]
  drug sensitivity score: 9.1
[10]
  drug sensitivity score: 9

## CC(C)(C)C[C@@H]1N[C@@H](C(=O)N[C@H]2CC[C@H](O)CC2)[C@H](c2cccc(Cl)c2F)[C@]12C(=O)Nc1cc(Cl)ccc12
[1]
  drug sensitivity score: 10.3
[2]
  drug sensitivity score: 17.9
[3]
  drug sensitivity score: 3.1
[4]
  drug sensitivity score: 3.3
[5]
  drug sensitivity score: 1.6
[6]
  drug sensitivity score: 1.6
[7]
  drug sensitivity score: 3.5
[8]
  drug sensitivity score: 3.4
[9]
  drug sensitivity score: 9.9
[10]
  drug sensitivity score: 8.4

## Cc1cnc(Nc2ccc(OCCN3CCCC3)cc2)nc1Nc1cccc(S(=O)(=O)NC(C)(C)C)c1 [Fedratinib]
[1]
  drug sensitivity score: 10.4
[2]
  drug sensitivity score: 12.2
[3]
  drug sensitivity score: 3.2
[4]
  drug sensitivity score: 2.8
[5]
  drug sensitivity score: 5.1
[6]
  drug sensitivity score: 1.7
[7]
  drug sensitivity score: 2.3
[8]
  drug sensitivity score: 6.9
[9]
  drug sensitivity score: 5.7
[10]
  drug sensitivity score: 11.3

## Cn1c(=O)n(-c2ccc(C(C)(C)C#N)cc2)c2c3cc(-c4cnc5ccccc5c4)ccc3ncc21 [Dactolisib]
[1]
  drug sensitivity score: 22.1
[2]
  drug sensitivity score: 23
[3]
  drug sensitivity score: 16.2
[4]
  drug sensitivity score: 15.6
[5]
  drug sensitivity score: 14.4
[6]
  drug sensitivity score: 13.1
[7]
  drug sensitivity score: 13
[8]
  drug sensitivity score: 11.1
[9]
  drug sensitivity score: 22.7
[10]
  drug sensitivity score: 23.2
